Tests used:
primary inguinal cells = experiment: Thermogenic gene expression in Slit2-C transduced primary inguinal cells co-treated with inhibitors; type: cell-based, Mus musculus
Method: Inguinal and brown stromal-vascular fractions were obtained from 6 weeks old male or newborn mice (postnatal days 5-10) for white and brown fat cultures, respectively. Inguinal fat tissue was dissected and washed with PBS, minced and digested for 45 min at 37° C. in PBS containing 10 mM CaCl2), 2.4 U/ml dispase II (Roche) and 10 mg/ml collagenase D (Roche). Brown fat tissue was dissected, washed with PBS, minced and digested for 45 min at 37° C. in PBS containing 1.3 mM CaCl2, 123 mM NaCl, 5 mM KCl, 5.0 mM glucose, 100 mM HEPES, 4% BSA and 1.5 mg/ml collagenase B (Roche). Digested tissue was filtered through a 100-μm cell strainer and centrifuged at 600 g for 10 min. Pelleted inguinal stromal-vascular cells were grown to confluence and induced to differentiate by an adipogenic cocktail containing 0.02 μM insulin, 1 μM rosiglitazone, 5 μM dexamethasone, 0.5 μM isobuthylmethylxanthine. For differentiation of brown fat cells, 1 nM T3 and 125 μM indomethacin were also added to the adipogenic cocktail. Two days after induction, cells were maintained in adipocyte culture medium containing 0.02 μM insulin and 1 μM rosiglitazone. Where indicated, cells were treated with forskolin (10 μM), norepinephrine (100 nM) for 4 h or with recombinant proteins (1 μg/ml, R&D systems) for 24 h or for the indicated times. For adenoviral overexpression of Slit2-FL, Slit2-N, Slit2-C, LacZ or Cre, virus was added at day 2 of differentiation at a titer of 10^8 particles/well and cells were analyzed at day 6-7. […]
(§1) RNA was extracted from cultured cells or frozen tissue samples using TRIzol®, purified with QIAGEN RNeasy® minicolumns. Normalized RNA was reversed transcribed using a high-capacity cDNA reverse transcription lot (Applied Biosystems) and cDNA was analyzed by qRT-CPR. Relative mRNA levels were calculated using the comparative CT method and normalized to cyclophilin miRNA. […]

PKA signaling pathway [1] = experiment: Western blotting of PKA and related signaling in primary inguinal cells; type: cell-based, Mus musculus; conditions: H89 30 μM, 2 h, primary inguinal cells; FIG. 10C
Method: Inguinal and brown stromal-vascular fractions were obtained from 6 weeks old male or newborn mice (postnatal days 5-10) for white and brown fat cultures, respectively. Inguinal fat tissue was dissected and washed with PBS, minced and digested for 45 min at 37° C. in PBS containing 10 mM CaCl2), 2.4 U/ml dispase II (Roche) and 10 mg/ml collagenase D (Roche). Brown fat tissue was dissected, washed with PBS, minced and digested for 45 min at 37° C. in PBS containing 1.3 mM CaCl2, 123 mM NaCl, 5 mM KCl, 5.0 mM glucose, 100 mM HEPES, 4% BSA and 1.5 mg/ml collagenase B (Roche). Digested tissue was filtered through a 100-μm cell strainer and centrifuged at 600 g for 10 min. Pelleted inguinal stromal-vascular cells were grown to confluence and induced to differentiate by an adipogenic cocktail containing 0.02 μM insulin, 1 μM rosiglitazone, 5 μM dexamethasone, 0.5 μM isobuthylmethylxanthine. For differentiation of brown fat cells, 1 nM T3 and 125 μM indomethacin were also added to the adipogenic cocktail. Two days after induction, cells were maintained in adipocyte culture medium containing 0.02 μM insulin and 1 μM rosiglitazone. Where indicated, cells were treated with forskolin (10 μM), norepinephrine (100 nM) for 4 h or with recombinant proteins (1 μg/ml, R&D systems) for 24 h or for the indicated times. For adenoviral overexpression of Slit2-FL, Slit2-N, Slit2-C, LacZ or Cre, virus was added at day 2 of differentiation at a titer of 10^8 particles/well and cells were analyzed at day 6-7. Where indicated, cells were treated with the drugs Erlotinib (SelleckChem), Lapatinib (Santa Cruz), PD0325901 (Santa Cruz), Propranolol (SelleckChem), H89 dihydrochloride (Santa Cruz), SQ-22536 (Santa Cruz) for indicated time points and concentrations.
For Western blotting, homogenized tissues, whole cell lysates, or concentrated serum free conditioned medium were lysed in RIPA buffer containing protease inhibitor cocktail (Thermo Scientific) and phosphatase inhibitor cocktail (Thermo Scientific), separated by SDS-PAGE and transferred to Immobilon-P® membranes (Millipore). For Western blotting of plasma samples, 1 μl of plasma was prepared containing 2× sample buffer (Invitrogen) with reducing agent, boiled and analyzed using Western blot against V5, FLAG, or the indicated antibody. V5-antibody was from Life Technologies and anti-Flag M2-HRP (A8592) from Sigma Aldrich. Anti-Slit2 antibody used was from Abcam (Abcam ab134166). Phospho-PKA Substrate, phospho-PKC Substrate, phospho-ERK1/2, total ERK, phospho-AKT, total AKT, phospho-AMPK, total AMPK, phospho-ATGL, ATGL, phospho-EGFR and EGFR were from Cell Signaling. Protein array was from R&D Systems (Proteome Profiler Mouse Phospho-RTK Array Kit, ARY014). Silverstain (SilverQuest™ Silver Staining Kit, LC6070) was purchased from Thermo Fisher.

Slit2 = Slit2 mRNA in adipose tissue after daily CL 316,243 injections; type: in vivo, Mus musculus; conditions: 3 days treatment, daily injections 1 mg/kg; did not reach statistical significance; FIG. 2F
Method: as §1, with “[…]. All primers used are listed with their sequences in Table 3 as follows:” for “miRNA.”

PKA signaling pathway [2] = experiment: Western blotting of PKA and related signaling in primary inguinal cells; type: cell-based, Mus musculus; conditions: 20 nM NE; FIG. 10M
brown fat = conditions: humans; Cypess et al. (2015); cited from earlier work
[3] = test system: cell surface of primary inguinal adipocytes; experiment: Cell surface binding by confocal laser scanning microscopy; set-up: species or system Mus musculus; conditions: purified FLAG-tagged protein, live adipocytes incubated at 4° C.; FIGS. 10L, 11E
Method: Live, primary differentiated adipocytes were incubated with recombinant Slit2-C FLAG-tagged protein for 1 h at 4° C. before fixation and staining with a fluorescent antibody for visualization of cell-surface bound proteins using a confocal laser scanning microscope.
Experiments were performed using a Nikon Ti w/A1R confocal inverted microscope equipped with a Nikon Plan Apo 60x/NA 1.4 oil immersion objective lens using excitation wavelengths of 405 and 561 nm. All experiments were performed under confocal imaging conditions (pinhole <1 airy unit) and images taken with the same laser settings. Image analysis was performed using the Nikon Elements acquisition software. Primary inguinal cells differentiated until day 5 was gently trypsinized and seeded onto poly-D-lysine-coated coverslips (Corning Biocoat 12 mm German Glass coverslips, #08-774-385) in a 6-well plate at a density of 10,000 cells per well in growth medium. On the next day, cell surface binding was performed by adding 1 μg/ml purified protein to cells or FLAG peptide in PBS in serum-containing medium for 1 h at 4° C. on ice. Cells were washed three times in PBS, fixed in 4% paraformaldehyde for 10 min at 4° C., and washed with PBS three times before blocking with 5% BSA in PBS for 1 h at room temperature. Cells treated with protein or FLAG peptide alone were stained using 1:200 anti-Flag M2-HRP overnight at 4° C. […]

For `Cl.Cl.O=S(=O)(NCCNC/C=C/c1ccc(Br)cc1)c1cccc2cnccc12` [H89, H89 dihydrochloride], the “Dio2 mRNA in cells receiving Slit2-C” value (primary inguinal cells; H89 30 μM, FIG. 10D) was “down to baseline levels”, the “reduction of Ucp1 mRNA in cells receiving Slit2-C” value (primary inguinal cells; H89 30 μM, FIG. 10D) was 50% and the “phosphorylation of PKA substrates” value (PKA signaling pathway [1]) was “significantly reduced”.

With `C[C@H](Cc1ccc2c(c1)OC(C(=O)[O-])(C(=O)[O-])O2)NC[C@H](O)c1cccc(Cl)c1.[Na+].[Na+]` [CL316, 243] the “Slit2 gene expression in iWAT” value (Slit2) was “trend to an increase”.

For `NC[C@H](O)c1ccc(O)c(O)c1` [NE, norepinephrine], the “time of treatment to full PKA phosphorylation response” value (PKA signaling pathway [2]) was no more than 5 min.

For `Nc1nc(CC(=O)Nc2ccc(CCNC[C@H](O)c3ccccc3)cc2)cs1` [mirabegron], the brown fat activation (brown fat) is given as “apparent activation of brown fat” and the resting metabolic rate (brown fat) is given as “increased resting metabolic rate”.

For `CC(C)NCC(O)COc1cccc2ccccc12` (stereo not drawn) [Propranolol], the “inhibition of Slit2-C induced thermogenesis” value (primary inguinal cells; propranolol 100 nM for 24 h, FIG. 10H) was “did not inhibit”.

B1: Pm20D1: another FLAG-tagged protein secreted from thermogenic adipocytes, control for specific staining (protein)
chain: STGPRSRENRGASRIPSQFSEEERVAIKEALKGAIQIPTVSFSHEESNTTALAEFGEYIRKAFPTVFHSSLVQHEVVAKYSHLFTIQGSDPSLQPYMLMAHIDVVPAPEEGWEVPPFSGLERNGFIYGRGALDNKNSVMAILHALELLLIRNYSPKRSFFIALGHDEEVSGEKGAQKISALLQARGVQLAFLVDEGSFILEGFIPNLEKPVAMISVTEKGALDLMLQVNMTPGHSSAPPKETSIGILSAAVSRLEQTPMPNMFGGGPLKKTMKLLANEFSFPINIVLRNLWLFHPIVSRIMERNPITNALVRTTTALTMFNAGIKVNVIPPLAQATINCRIHPSQTVHEVLELVKNTVADDRVQLHVLRSFEPLPISPSDDQAMGYQLLQETIRSVFPEVDIVVPGICIANTDTRHYANITNGMYRFNPLPLNPQDFSGVHGINEKVSVQNYQNQVKFIFEFIQNADTYKEPVPHLHEL
modifications: left off: small tags and cut ends
notes: another FLAG-tagged protein secreted from thermogenic adipocytes, control for specific staining
For B1, the “binding to the cell surface of adipocytes” value [3] was “very limited binding”.

From patent US12702694B2, “Methods for identification, assessment, prevention, and treatment of metabolic disorders using SLIT2” (Dana-Farber Cancer Institute, Inc., priority 2015, dated 2026)
